{
  "source": "ChEMBL document CHEMBL3792378",
  "about": "“Design, synthesis and cytotoxicity of pyrano[4,3-b]indol-1(5H)-ones: A hybrid pharmacophore approach via gold catalyzed cyclization” (Bioorg Med Chem Lett, 2016)",
  "data": [
    {"test_system": "HeLa", "assay": "Cytotoxicity against human HeLa cells incubated for 48 hrs by MTT assay", "type": "functional, cell-based", "units": {"IC50": "nM"}, "values": [
      {"compound": "CCn1c2ccccc2c2c(=O)oc(-c3ccccc3)cc21", "IC50": 1410},
      {"compound": "CCCCc1cc2c(c(=O)o1)c1ccccc1n2C", "IC50": 1920},
      {"compound": "CCCCc1cc2c(c(=O)o1)c1ccccc1n2CC", "IC50": 1890},
      {"compound": "CCCCCc1cc2c(c(=O)o1)c1ccccc1n2Cc1ccccc1", "IC50": 1630},
      {"compound": "O=c1oc(-c2ccccc2)cc2c1c1ccccc1n2Cc1ccccc1", "IC50": 690},
      {"compound": "O=c1oc(-c2ccccc2)cc2[nH]c3ccccc3c12", "IC50": 2550},
      {"compound": "CC(C)(O)c1cc2c(c(=O)o1)c1ccccc1n2Cc1ccccc1", "IC50": 2020},
      {"compound": "CCCCn1c2ccccc2c2c(=O)oc(-c3ccccc3)cc21", "IC50": 1110},
      {"compound": "O=c1oc(CCCO)cc2c1c1ccccc1n2Cc1ccccc1", "IC50": 2250},
      {"compound": "Cn1c2ccccc2c2c(=O)oc(-c3ccccc3)cc21", "IC50": 1240},
      {"compound": "CCCCc1cc2c(c(=O)o1)c1ccccc1n2Cc1ccccc1", "IC50": 1750}
    ]}
  ]
}
